Source: PMC8776094, “Reactive Oxygen Species Production Is Responsible for Antineoplastic Activity of Osmium, Ruthenium, Iridium and Rhodium Half-Sandwich Type Complexes with Bidentate Glycosyl Heterocyclic Ligands in Various Cancer Cell Models” (International Journal of Molecular Sciences, 2022)
Several values for one entry are separate records, joined by “and”; a condition that tells them apart may be missing. Identical values can stand only once. Like-named read-outs stand apart in the source and are kept apart here.

What was measured:
[1] = test system: A2780 ovarian cancer cells; assay: SRB assay, 48 h, cytostasis, A2780; assay type: cell-based; conditions: 48 h treatment
Protocol: (§1) The compounds were tested between 0.001694 and 33.3333 µM, using a 4-hour-long MTT test to assess rapid toxicity and a 48-hour-long SRB assay to assess the long-term effects of the inhibition of proliferation (cytostasis). The MTT assay assesses the activity of mitochondrial complex I and detects rapid, direct toxicity, as well as indicating apoptosis and necrosis. The SRB assay measures the total protein content that is proportional to cell numbers; therefore, the assay can detect changes in cell numbers and can thus be used as a readout for cell proliferation. The SRB assay was performed after 48 h of treatment (with the exception of L428 cells, which were tested for 96 h due to their slower proliferation rate). In this setting, the SRB assay informs us of long-term changes to cell proliferation. We assessed the maximal inhibition within that concentration range, and descriptive statistics were performed. We performed a one-way ANOVA, followed by the Kruskal–Wallis test, regardless of the normal or non-normal distribution of the data. Due to the large number of significance values, the results of the significance calculations are provided in an Excel spreadsheet at https://figshare.com/s/28d14597d5041f08eb08 (accessed on 6 January 2022), among other primary data of the study. Where possible, nonlinear regression was performed on the curves to determine the IC50 values ((inhibitor) vs. response—variable slope (four parameters) method with Graphpad v8.0.1). […] In Table 5, we added the IC50 values that we determined for a set of 4 active ruthenium half-sandwich complexes we identified previously, to be used in subsequent structure-activity relationship (SAR) analyses.
(§2) A2780 cells were cultured in RMPI 1640 medium, supplemented with 10% fetal calf serum, 2 mM glutamine, and 1% penicillin-streptomycin.
(§3) The assay was performed similarly to the method used in [73]. Cells were seeded in 96-well plates the day before the assay. Cells were treated with the compounds for 48 h, with the exception of L428, where 96 h of treatment was applied. Cells were fixed with 10% trichloroacetic acid (TCA). Fixed cells were washed in distilled water 3 times, followed by staining with SRB (0.4 m/V% dissolved in 1% acetic acid) for 10 min. The stained cells were washed in 1% acetic acid 5 times; the acetic acid was removed, and the cells were left to dry. Protein-bound SRB was released by adding 100 µL 10 mM Tris base. Plates were measured in a plate photometer (Thermo Scientific Multiscan GO spectrophotometer, Waltham, MA, USA) at 540 nm. On each plate, wells were designed to contain untreated cells. In calculations, the readings for these wells were considered as 1 and all readings were expressed relative to these values.
(§4) Statistical analysis was performed using the 8.0.1 version of Graphpad Prism. Values were tested for normal distribution, using the d’Agostino and Pearson normality test. When necessary, values were log-normalized or were normalized using the Box-Cox normalization method or using a two-step transformation, as indicated in the figure captions. Nonlinear regression was performed using the built-in “[Inhibitor] vs. Response—Variable slope (four parameters), least-square fit” utility of Graphpad, yielding the IC50 and Hill slope values.

[2] = test system: A2780 ovarian cancer cells; assay: MTT reduction assay, 4 h, rapid toxicity, A2780; assay type: cell-based; conditions: 4 h treatment
Protocol: as §1, §2
The MTT reduction assay measures the activity of mitochondrial complex I and can be used to detect apoptosis and necrosis. The assay was performed similarly to the method used in [72]. Briefly, cells were plated in 96-well plates the day before the assay. Cells were treated with the compounds for 4 h, then MTT was added at 0.5 mg/mL final concentration and the cells were incubated at 37 °C in a cell incubator. The culture media were removed and the reduced MTT dye was dissolved in dimethyl-sulfoxide (DMSO) and plates were measured in a plate photometer (Thermo Scientific Multiscan GO spectrophotometer, Waltham, MA, USA) at 540 nm. On each plate, wells were designed to contain untreated/vehicle-treated cells. In the calculations, the readings for these wells were considered as 1 and all readings were expressed relative to these values.

[3] = Determination of the distribution coefficients (logD), n-octanol/PBS; assay type: physicochemical; conditions: n-octanol / PBS pH = 7.40, rt
Protocol: Before starting the experiments, n-octanol was saturated with an aqueous PBS solution (pH = 7.40) and vice versa. A solution of the appropriate complex (approximately 0.2–0.3 mg) in a mixture of 2.50 mL pre-saturated n-octanol and 2.50 mL pre-saturated PBS buffer was made, and the resulting mixture was then vigorously stirred for 3 days at rt. Based on our previous NMR stability experiments, this time is long enough to reach equilibrium among the various ionic complex species. Due to the lipophilic/hydrophilic features of the complexes, those with benzoyl protection could primarily be found in the n-octanol, while the complexes with O-peracetylated and O-deprotected ligands were in the aqueous PBS phase. The corresponding separated solution was centrifuged (ScanSpeed 406G instrument, 4000 RPM for 5 min) and the absorption of the ”stock solution” was determined (VWR UV-1600PC Spectrophotometer, 270–420 nm). Then, 2.00 mL of the stock solution was vigorously stirred with 16.00 mL of pre-saturated n-octanol or PBS solution. After one day had passed, the phases were separated, centrifuged, and the absorption of the solution was measured again. From the absorption difference of the stock solutions, the distribution coefficient (D) was determined using previously described formulae [71].

[4] = test system: A2780 ovarian cancer cells; design: method as in PMID 34638791; conditions: SRB assay, 48 h; data previously published; cited from earlier work
[5] = test system: ID8 ovarian cancer cell line; design: method as in PMID 34638791; conditions: SRB assay, 48 h; data previously published; cited from earlier work
[6] = test system: Capan2, a pancreatic adenocarcinoma cell line; design: method as in PMID 34638791; conditions: SRB assay, 48 h; data previously published; cited from earlier work
[7] = design: method as in PMID 34638791; conditions: data previously published; cited from earlier work
[8] = test system: ID8 ovarian cancer cell line; assay: SRB assay, 48 h, cytostasis, ID8; assay type: cell-based; conditions: 48 h treatment
Protocol: as §1
ID8 cells were cultured in a high-glucose DMEM (4.5 g/L glucose) medium, supplemented with 4% fetal calf serum, 2 mM glutamine, 1% penicillin-streptomycin, and 1% ITS supplement (I3146).
as §3, §4

[9] = test system: human primary fibroblasts; assay: SRB assay, 48 h, cytostasis, primary fibroblasts; assay type: cell-based; conditions: MTT 4 h and SRB 48 h
Protocol: The compounds were tested between 0.001694 and 33.3333 µM, using a 4-hour-long MTT test to assess rapid toxicity and a 48-hour-long SRB assay to assess the long-term effects of the inhibition of proliferation (cytostasis). The MTT assay assesses the activity of mitochondrial complex I and detects rapid, direct toxicity, as well as indicating apoptosis and necrosis. The SRB assay measures the total protein content that is proportional to cell numbers; therefore, the assay can detect changes in cell numbers and can thus be used as a readout for cell proliferation. The SRB assay was performed after 48 h of treatment (with the exception of L428 cells, which were tested for 96 h due to their slower proliferation rate). In this setting, the SRB assay informs us of long-term changes to cell proliferation. We assessed the maximal inhibition within that concentration range, and descriptive statistics were performed. We performed a one-way ANOVA, followed by the Kruskal–Wallis test, regardless of the normal or non-normal distribution of the data. […]
The assay was performed similarly to the method used in [73]. […] Plates were measured in a plate photometer (Thermo Scientific Multiscan GO spectrophotometer, Waltham, MA, USA) at 540 nm. […] In calculations, the readings for these wells were considered as 1 and all readings were expressed relative to these values. […]

[10] = test system: human primary fibroblasts; design: method as in PMID 34638791; conditions: SRB assay, 48 h, data previously published, cited from earlier work

Row | Compound | cytostatic activity on A2780 cells in SRB assay (in words) [1] | toxicity on A2780 cells in short-term MTT assay (in words) [2] | A2780 Max. Inh. (%) [4] [%] | IC50 [4] | IC50 [5] [µM] | ID8 Max. Inh. (%) [5] [%] | Capan2 Max. Inh. (%) [6] [%] | IC50 [6] [µM] | LogD [7] | also measured
1 | Cc1ccc(C(C)C)cc1.F[P-](F)(F)(F)(F)F.OCC1OC(c2noc(-c3ccccn3)n2)C(O)C(O)C1O.[Cl][Ru+] (mixture of isomers) [Ru-2] | neither of them showed considerable activity | neither of them showed considerable activity |  |  |  |  |  |  |  | LogD [3]: −0.96
2 | Cc1ccc(C(C)C)cc1.F[P-](F)(F)(F)(F)F.O=C(OCC1OC(n2cc(-c3ccccn3)nn2)C(OC(=O)c2ccccc2)C(OC(=O)c2ccccc2)C1OC(=O)c1ccccc1)c1ccccc1.[Cl][Ru+] (mixture of isomers) [Ru-6] |  |  | 100 | 0.87 µM | 2.15 | 100 | 100 | 2.18 | 2.85 | 
3 | Cc1ccc(C(C)C)cc1.F[P-](F)(F)(F)(F)F.O=C(OCC1OC(c2noc(-c3ccccn3)n2)C(OC(=O)c2ccccc2)C(OC(=O)c2ccccc2)C1OC(=O)c1ccccc1)c1ccccc1.[Cl][Ru+] (mixture of isomers) [Ru-1] | neither of them showed considerable activity | neither of them showed considerable activity |  |  |  |  |  |  |  | LogD [3]: 2.79
4 | Cc1ccc(C(C)C)cc1.F[P-](F)(F)(F)(F)F.O=C(OCC1OC(c2nnc(-c3ccccn3)o2)C(OC(=O)c2ccccc2)C(OC(=O)c2ccccc2)C1OC(=O)c1ccccc1)c1ccccc1.[Cl][Ru+] (mixture of isomers) [Ru-3] |  |  | 100 | 6.2 µM and 6.19 µM | 5.66 | 100 | 100 | 3.27 | 2.41 | 
5 | Cc1c(C)c(C)[c-](C)c1C.Cc1c(C)c(C)[c-](C)c1C.[Cl-].[Cl-].[Cl-].[Cl-].[Ir+3].[Ir+3] [Ir-dimer, dichloro(pentamethylcyclopentadienyl)iridium(III) dimer] | inactive |  |  |  |  |  |  |  |  | cytostatic activity on ID8 cells, SRB assay (in words) [8]: inactive; cytotoxic or cytostatic activity on fibroblasts (in words) [9]: None of the complexes, Ir-1‒Ir-12, or the Ir-dimer exerted cytotoxic or cytostatic activity on fibroblasts
6 | dichloro(pentamethylcyclopentadienyl)rhodium(III) dimer [Rh-dimer] | inactive |  |  |  |  |  |  |  |  | cytostatic activity on ID8 cells, SRB assay (in words) [8]: inactive; cytotoxic or cytostatic activity on fibroblasts (in words) [9]: None of the complexes Rh-3‒Rh-6 or the Rh-dimer exerted cytotoxic or cytostatic activity on fibroblasts
7 | Cc1ccc(C(C)C)cc1.F[P-](F)(F)(F)(F)F.O=C(OCC1OC(c2nnc(-c3ccccn3)o2)C(OC(=O)c2ccccc2)C(OC(=O)c2ccccc2)C1OC(=O)c1ccccc1)c1ccccc1.[Cl][Ru+] (mixture of isomers) [Ru-4] |  |  | 100 | 4.3 µM and 4.27 µM | 7.94 | 100 | 100 | 3.82 | 2.44 | 
8 | Cc1ccc(C(C)C)cc1.F[P-](F)(F)(F)(F)F.O=C(OC1COC(c2nnc(-c3ccccn3)o2)C(OC(=O)c2ccccc2)C1OC(=O)c1ccccc1)c1ccccc1.[Cl][Ru+] (mixture of isomers) [Ru-5] |  |  | 100 | 8.5 µM and 8.54 µM | 6.76 | 100 | 100 | 4.97 | 2.04 | Fibroblast Max. Inh. (%) ([10]; ND = not detected): 80%; IC50 ([10]; read-out: Fibroblast IC50): 24.6 µM
9 | OC[C@H]1O[C@@H](c2noc(-c3ccccn3)n2)[C@H](O)[C@@H](O)[C@@H]1O [Complex L-2, 3-(β-D-Glucopyranosyl)-5-(pyridin-2-yl)-1,2,4-oxadiazole] | practically inactive | practically inactive |  |  |  |  |  |  |  | 
